Publication PMC5650142, “GPR40 partial agonists and AgoPAMs: Differentiating effects on glucose and hormonal secretions in the rodent” (PLoS ONE, 2017)
“And” between values parts separate entries of the source, which are not always exact repeats. Identical values can stand only once. Like-named read-outs stand apart in the source and are kept apart here.

Target: human GPR40 (Homo sapiens, UniProt O14842)
Assay: GPR40 binding assay, AgoPAM tracer [3H]25 ([3H]AP9);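 on % Bound Normalized to 100: 100% bound is tracer binding in DMSO-only wells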;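 on %Bound: 100% bound is tracer binding in DMSO-only wells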
Set-up: expressed in transfected cells; host or cells: CHO / CHO-K1 cells, membrane preparation
Description: Two small molecule tracers, the partial agonist [3H][…] and the AgoPAM [3H]25, are used to measure compound affinity at each site as described previously. Because of the allosteric coupling of the two sites and the nature of the assay, addition of a compound will either displace (binds to same site) or augment (binds to allosterically coupled site) radiotracer. Membranes expressing GPR40 were prepared from CHO cells stably expressing human GPR40. […] Sigma P8830) and were homogenized in 50 ml aliquots with a motor-driven glass Dounce homogenizer, 15 strokes at 1900 rpm on wet ice, repeating once. Homogenates were centrifuged at 2200 rpm for 10 min at 4°C. Supernatants were carefully removed and pooled. Homogenization and centrifugation were repeated until the debris pellet was translucent to maximize membrane recovery. Supernatants were then centrifuged at […] rpm for 20 min. at 4°C. […] Protein concentration was determined by Pierce BCA kit. […] The beads and membrane mixture is then vigorously mixed for 30 minutes at room temperature prior to addition to the assay. […] Next, 15 μl of the radioligand and 35 μl of the beads/membranes solution is added to each well. The assay plates are then sealed and incubated for 30 minutes at room temperature on an orbital shaker. The plates are allowed to settle for 16 hours and then counted on a TopCount scintillation counter (PE). […] Maximal % bound and IC50 are then determined for each test compound. 5 μg/well membrane together with 200 μg/well of PVT WGA SPA beads (GE #RPNG-0001) were suspended in a white 96 well plate with a final concentration of 50 μl/well in assay buffer (50 mM Tris, 10 mM MgCl2, and 2 mM EDTA). […] The plate is briefly mixed and incubated for 3-18 h at room temperature, before it is read on a MicroBeta plate counter (Perkin Elmer, MS, USA).

[1] = radioligand L-005306257, dose 0.318285 nM
[2] = radioligand L-005306257, dose 1.00578 nM
[3] = radioligand L-005306257, dose 3.17827 nM
[4] = radioligand L-005306257, dose 10.0433 nM
[5] = radioligand L-005306257, dose 31.7369 nM
[6] = radioligand L-005306257, dose 100.289 nM
[7] = radioligand L-005306257, dose 316.912 nM
[8] = radioligand L-005306257, dose 1001.44 nM
[9] = radioligand L-005306257, dose 3164.56 nM
[10] = radioligand L-005306257, dose 10000 nM

Sequence of human GPR40 (O14842 whole entry): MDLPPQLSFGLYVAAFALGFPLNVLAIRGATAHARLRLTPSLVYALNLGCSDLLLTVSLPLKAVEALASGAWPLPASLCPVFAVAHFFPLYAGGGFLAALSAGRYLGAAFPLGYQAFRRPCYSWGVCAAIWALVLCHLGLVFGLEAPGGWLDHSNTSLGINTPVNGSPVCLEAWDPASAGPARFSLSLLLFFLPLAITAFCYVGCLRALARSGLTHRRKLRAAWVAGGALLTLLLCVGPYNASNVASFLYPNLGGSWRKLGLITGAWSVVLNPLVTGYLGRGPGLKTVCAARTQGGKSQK

COc1ccc(F)c(-c2ccc(COc3cccc([C@@H](CC(=O)O)C4CC4)c3)cc2C2=CCCC2(C)C)c1 [AM-1638, reference compound]
HUMAN GPR40 Binding Data %Act (AM1638 sheet, individual replicates (n), tracer not given): 103% and 99% | IC50 (AM1638 sheet, individual replicates (n), tracer not given, read-out: HUMAN GPR40 Binding Data IC50): 13.8 nM and 25.5 nM | Binding Results, % in parentheses, [^3H]AP9 (WT human GPR40, maximal % (not defined)): (101%) | IC50 (WT human GPR40, n = 2–13, read-out: Binding Results [IC50, nM], [^3H]AP9): 20 ± 8.3 nM | binding of [^3H]25 (human GPR40 membranes, competition binding): displace | % Bound Normalized to 100 [1]: 103.56% | %Bound [1]: 97.67% | inhibition at 0.000318285 µM [1]: 2.33% | % Bound Normalized to 100 [2]: 89.69% | %Bound [2]: 83.79% | inhibition at 0.00100578 µM [2]: 16.2% | % Bound Normalized to 100 [3]: 80.49% | %Bound [3]: 74.60% | inhibition at 0.00317827 µM [3]: 25.4% | % Bound Normalized to 100 [4]: 58.81% | %Bound [4]: 52.92% | inhibition at 0.0100433 µM [4]: 47.1% | % Bound Normalized to 100 [5]: 50.48% | %Bound [5]: 44.59% | inhibition at 0.0317369 µM [5]: 55.4% | % Bound Normalized to 100 [6]: 21.00% | %Bound [6]: 15.10% | inhibition at 0.100289 µM [6]: 84.9% | % Bound Normalized to 100 [7]: 13.54% | %Bound [7]: 7.64% | inhibition at 0.316912 µM [7]: 92.4% | % Bound Normalized to 100 [8]: 7.12% | %Bound [8]: 1.23% | inhibition at 1.00144 µM [8]: 98.8% | % Bound Normalized to 100 [9]: 6.42% | %Bound [9]: 0.53% | inhibition at 3.16456 µM [9]: 99.5% | % Bound Normalized to 100 [10]: 6.25% | %Bound [10]: 0.36% | inhibition at 10 µM [10]: 99.6%
